The values below come from patent US20090055964A1, “MPO1 GENE AND PROTEIN AND METHODS OF USE” (priority 2006, published 2009).

The Vmax is the top rate of the reaction or transport when substrate is in excess. In general, Km refers to the substrate concentration at which the rate is half of its maximum.

In data set [1] the target is T1, recombinant TRX-NtMPO1 fusion protein (Nicotiana tabacum, UniProt A0A1S4BDC4).
T1 sequence (A0A1S4BDC4 1-790): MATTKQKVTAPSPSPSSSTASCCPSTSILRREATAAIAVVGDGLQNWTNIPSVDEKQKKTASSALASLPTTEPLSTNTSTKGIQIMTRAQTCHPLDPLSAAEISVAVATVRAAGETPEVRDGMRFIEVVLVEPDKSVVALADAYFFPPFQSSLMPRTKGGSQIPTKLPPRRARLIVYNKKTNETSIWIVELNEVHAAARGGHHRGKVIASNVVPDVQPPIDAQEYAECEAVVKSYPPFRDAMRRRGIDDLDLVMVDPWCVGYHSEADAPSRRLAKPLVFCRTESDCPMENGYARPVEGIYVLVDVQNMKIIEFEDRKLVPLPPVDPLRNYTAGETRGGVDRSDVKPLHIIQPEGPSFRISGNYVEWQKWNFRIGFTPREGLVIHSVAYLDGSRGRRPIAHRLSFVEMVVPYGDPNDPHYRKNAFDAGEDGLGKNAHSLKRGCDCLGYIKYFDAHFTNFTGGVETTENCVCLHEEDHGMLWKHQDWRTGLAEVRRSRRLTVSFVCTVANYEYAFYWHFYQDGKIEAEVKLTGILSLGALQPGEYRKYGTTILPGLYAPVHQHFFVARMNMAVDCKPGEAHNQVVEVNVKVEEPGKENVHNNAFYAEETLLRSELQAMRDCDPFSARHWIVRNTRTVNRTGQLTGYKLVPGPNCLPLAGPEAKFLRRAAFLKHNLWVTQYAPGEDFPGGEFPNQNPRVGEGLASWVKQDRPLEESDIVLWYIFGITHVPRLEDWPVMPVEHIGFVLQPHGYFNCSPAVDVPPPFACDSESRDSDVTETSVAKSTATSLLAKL
Briefly: spectrophotometric amine oxidase assay of recombinant TRX-NtMPO1 with diamine substrates. The note with it: for Vmax: substrate kinetics, Lineweaver-Burk plots, three independent extracts. On the procedure: This modified fragment was cloned into pCR2.1 (Invitrogen) to yield pJGJ367. […] Finally, a 2.6 Kb NcoI-XhoI (partial) fragment was cut from pJGJ369 and ligated into pET32a+ similarly cut, to yield pJGJ389. Plasmid pJGJ389 was transformed into the Rosetta E. coli strain (Novagen, Madison, Wis.) for expression of a recombinant […] protein. Mid-log phase Rosetta/pJGJ389 cells were cultured overnight in LB media supplemented with 100 ug/ml Ampicillin, 30 ug/ml Chloramphenicol, and 0.2 mM isopropyl-β-D-thiogalactoside at 18° C. at 250 rpm. The cells were pelleted, lysed, and the native protein extract incubated with Ni-NTA superflow resin, and the TRX-MPO1 was eluted as per manufacture's instructions (Qiagen, Valencia, Calif.). The TRX-MPO1 enriched extract was mixed 1:1 (v:v) with 100% glycerol and stored at −20° C.

A further data set concerns NCCCN. As to the kind of experiment: purified protein, by the assay type. To be noted: other: substrate kinetics, Lineweaver-Burk plots, three independent extracts; 18.0 °C.

Protocol for NCCCN: Mid-log phase Rosetta/pJGJ389 cells were cultured overnight in LB media supplemented with 100 ug/ml Ampicillin, 30 ug/ml Chloramphenicol, and 0.2 mM isopropyl-β-D-thiogalactoside at 18° C. at 250 rpm. The cells were pelleted, lysed, and the native protein extract incubated with Ni-NTA superflow resin, and the TRX-MPO1 was eluted as per manufacture's instructions (Qiagen, Valencia, Calif.). The TRX-MPO1 enriched extract was mixed 1:1 (v:v) with 100% glycerol and stored at −20° C. […] Background-corrected diamine oxidase rates were graphed as Lineweaver-Burk plots in order to estimate the Vmax and Km of the recombinant TRX -NtMPO1 fusion protein isolated from three independent extracts.

Regarding `NCCCCN` [putrescine], the maximum rate (Vmax) in data set [1] worked out at 0.0007 ± 0.0001 mM/min. With `CNCCCCN` [N-methylputrescine, N-methyl-1,4 diaminebutane], the Vmax in data set [1] was determined as 0.0017 ± 0.0001 mM/min. With `NCCCN` [1,3-diamine propane, 1,3-diaminepropane], the “oxidative deamination as substrate by recombinant TRX-MPO1” value in data set [1] (qualitative, different kinetics for each substrate) is given as “oxidatively deaminated”. Turning to `NCCCCCN` [cadaverine], in data set [1], the Vmax was determined as 0.0003 ± 0.00004 mM/min. With “recombinant TRX-NtMPO1 fusion protein (Nicotiana tabacum)”, in the data set on NCCCN, the Km was found to be 350 ± 30 µM, the maximal velocity (Vmax) was determined as 0.7 µM/min and the Vmax/Km came out at 0.00193 min⁻¹.
